Data as given in patent publication US9486440B2, “Uses of indole-ketones or indolidones as neuro-protective drugs” (UNIVERSITY OF MACAU, priority 2011, dated 2016).
“Also recorded” adds a separate entry of the source.

Columns and labels:
[1] = tested on: zebrafish larvae; assay: Locomotion behavioral test of zebrafish larvae; assay type: in vivo; settings: for MPTP-induced deficit of swimming behavior (total distance travelled): 200 μM MPTP 2 days, then 10 μM MPTP plus drug 3 days, L-deprenyl 20 μM, L-dopa 150 μM
Protocol: (§1) Wild-type zebrafish (AB strain) and Tg (fli-1:EGFP) transgenic zebrafish were maintained as described in the Zebrafish Handbook (Westerfield, 1993). Zebrafish embryos were generated by natural pair-wise mating (3-12 months old) and raised at 28.5° C. in embryo medium (13.7 mM NaCl, 540 μM KCl, pH 7.4, 25 μM Na2HPO4, 44 μM KH2PO4, 300 μM CaCl2, 100 μM MgSO4, 420 μM NaHCO3, pH 7.4). […] An equal concentration of DMSO in embryo medium was used as vehicle control in each experiment.
Thus the MPTP exposure needs to last 5 day from 1 dpf. […] Thus subsequent locomotion behavioral studies were done with 200 μM MPTP for treatment for 2 days at 1 dpf then replacing insult with 10 μM MPTP for incubation for another 3 days.
(§2) After drug treatment, zebrafish larvae at 6 dpf were transferred into 96-well plates (1 fish/well and 12 larvae/group). Fishes responded with excessive stress reaction (such as rapid and disorganized swimming or immobility for 2 min) due to the handling and monitoring of the behavior were discarded. The experiments were performed in a calm enclosed area. The larvae were allowed to habituate to the new environment for 30 min prior to experiments. Behavior was monitored by an automated video tracking system (Viewpoint, ZebraLab, LifeSciences). The 96-well plates and camera were housed inside a Zebrabox and the swimming pattern of each fish was recorded for 10 min and repeated 3 times, once every other 10 min. The total distance moved was defined as the distance (in cm) that the fish had moved during one session (10 min).
Normally as late as 3 dpf, zebrafish larvae show very little spontaneous swimming, but by 5 dpf they spontaneously swim longer distances and independently search for food. The MPTP exposure therefore needs to last 5 days from 1 dpf. […] Thus subsequent locomotion behavioral studies were performed with 200 μM MPTP for 2-day treatment at 1 dpf then replacing with media containing 10 μM MPTP for another 3-day incubation.
as §2, with “The larvae were discarded due to” for “Fishes responded with”, “reaction to the handling and monitoring of behavior” for “reaction”, “min).” for “min) due to the handling and monitoring of the behavior were discarded.”, “sealed” for “enclosed”, “min. Swimming behavior” for “min prior to experiments. Behavior”, “for” for “repeated”

[2] = target: iNOS (Homo sapiens, UniProt P35228); settings: cited from earlier work
[3] = target: nNOS (Homo sapiens, UniProt P29475); settings: cited from earlier work
[4] = tested on: CGNs; assay: MPP+-induced neurotoxicity in CGNs, MTT and LDH assays; assay type: cell-based, rat; settings: pre-treatment 2 hours, then 35 μM MPP+ for 24 hours
Protocol: (§3) All animal experiments were conducted according to the ethical guidelines of ICMS, Macau University and the Animal Care Facility, The Hong Kong Polytechnic University. Rat CGNs were prepared from 8-day-old Sprague-Dawley rats (The Animal Care Facility, The Hong Kong Polytechnic University) as described by Li et al., 2005. Briefly, neurons were seeded at a density of 2.7×10^5 cells/ml in basal modified Eagle's medium (Invitrogen) containing 10% fetal bovine serum, 25 mM KCl, 2 mM glutamine, and penicillin (100 units/ml)/streptomycin (100 μg/ml). Cytosine arabinoside (10 μM) was added to the culture medium 24 hour after plating to limit the growth of non-neuronal cells. With the use of this protocol, more than 95% of the cultured cells were granule neurons.
(§4) The percentage of surviving neurons in the presence of SU4312 and/or MPP^+ was estimated by determining the activity of mitochondrial dehydrogenases with 3(4,5-dimethylthiazol-2-yl)-2.5-diphenyltetrazolium bromide (MTT) assay (Li et al., 2007). The assay was performed according to the specifications of the manufacturer (MTT kit I; Roche Applied Science). Briefly, the neurons were cultured in 96-well plates, 10 μl of 5 mg/ml MTT labeling reagent was added to each well containing cells in 100 μl of medium, and the plates were incubated for 4 hours in a humidified incubator at 37° C. After the incubation, 100 μl of the solvating solution (0.01 N HCl in 10% SDS solution) was added to each well for 16-20 hours. Absorbance of the samples was measured at a wavelength of 570 nm with 655 nm as a reference wavelength. Unless otherwise indicated, the extent of MTT conversion in cells exposed to MPP^+ is expressed as a percentage of the control.
Cytotoxicity was determined by measuring the release of lactate dehydrogenase (LDH). Briefly, cells were precipitated by centrifugation at 500 g for 5 min at room temperature, 50 μl of the supernatants was transferred into new wells, and LDH was determined using the in vitro toxicology assay kit (Roche). The absorbance of the samples was measured at a wavelength of 490 nm with 655 nm as a reference wavelength.
as §3, with “Rat” for “All animal experiments were conducted according to the ethical guidelines of ICMS, Macau University and the Animal Care Facility, The Hong Kong Polytechnic University. Rat”, “hours” for “hour”
as §4, with “The” for “The percentage of surviving neurons in the presence of SU4312 and/or MPP^+ was estimated by determining the activity of mitochondrial dehydrogenases with 3(4,5-dimethylthiazol-2-yl)-2.5-diphenyltetrazolium bromide (MTT) assay (Li et al., 2007). The”, “incubated at 37° C.” for “incubated”, “incubator.” for “incubator at 37° C.”, “The absorbance” for “Absorbance”

[5] = tested on: VEGFR-2; settings: cited from earlier work
[6] = tested on: DA neurons in the zebrafish brain; assay: MPTP zebrafish, whole-mount immunostaining against tyrosine hydroxylase; assay type: in vivo; settings: 200 μM MPTP, 2 days from 1 dpf; SU4312 3-30 μM, PTK787/ZK222584 0.3-3 μM, SU5416 0.1-1 μM, VRI 0.03-0.3 μM
Protocol: as §1

[7] = tested on: intersegmental-vessel (ISV) formation; assay: Intersegmental-vessel formation in Tg(fli-1:EGFP) zebrafish; assay type: in vivo; settings: 1 dpf embryos treated 48 hours; SU4312 3-30 μM, PTK787/ZK222584 0.3-3 μM, VRI 0.1-0.3 μM, SU5416 0.3-1 μM
Protocol: as §1
(§5) After drug treatment, zebrafish were removed from microplate and observed for gross morphological changes of blood vessel under a fluorescence microscope (Olympus am Motorized Inverted Microscope, Japan) equipped with a digital camera (DP controller, Soft Imaging System, Olympus). Images were analyzed with Axiovision 4.2 and Adobe Photoshop 7.0.
(§6) Wild-type zebrafish (AB strain) and Tg(fli-1:EGFP) transgenic zebrafish were maintained as described in the Zebrafish Handbook (Westerfield, 1993). Zebrafish embryos were generated by natural pair-wise mating (3-12 months old) and were raised at 28.5° C. in embryo medium (13.7 mM NaCl, 540 μM KCl, pH 7.4, 25 μM Na2HPO4, 44 μM KH2PO4, 300 μM CaCl2, 100 μM MgSO4, 420 μM NaHCO3, pH 7.4). […] Equal concentration of DMSO in embryo medium was used as vehicle control in each experiment.
as §5, with “from the” for “from”

[8] = tested on: zebrafish; assay: Toxicity to zebrafish; assay type: in vivo; settings: SU5416 10 μM, VRI 3 μM, SU4312 up to 30 μM
Protocol: as §1, §6

[9] = tested on: CGNs; assay: Low potassium-induced cell death in CGNs, MTT assay; assay type: cell-based; settings: 5 mM KCl BME medium, 24 hours; sunitinib 0.1-2 μM
Protocol: Cell viability was measured by MTT assay at 24 hours after low potassium challenge. […] After 24 hours of low potassium challenge, CGNs were assayed with an FDA/PI double staining. […] After 24 hours of low potassium challenge, CGNs were assayed with Hoechst staining. The number of apoptotic nuclei with condensed chromatin were counted from representative Hoechst staining photomicrographs and represented as a percentage of the total number of nuclei counted. […] Intracellular NO level was measured using DAF-FM diacetate as a probe at 4 hour after low potassium challenge. Data, expressed as percentage of control (CGNs were cultured in high potassium medium), were the mean±SEM of three separate experiments; *p<0.05 and **p<0.01 versus low potassium group in (A) and (D) or versus control in (C); ^##p<0.01 versus low potassium group in (C) (Turkey's test).
It was previously reported that low potassium could induce typical apoptosis in cerebellar granule neurons (CGNs) (Fu et al., 2008). […] Cell viability was measured with an MTT assay 24 hours after the low potassium treatment.

| Structure (SMILES) | MPTP-induced deficit of swimming behavior (total distance travelled) [1] | MPP+-induced cell death (cell viability, MTT and LDH assays) [4] | IC50 [5] | other results |
| --- | --- | --- | --- | --- |
| C#CCN(C)[C@H](C)Cc1ccccc1 [L-deprenyl] | rescued | – | – | – |
| N[C@@H](Cc1ccc(O)c(O)c1)C(=O)O [levodopa] | rescued | – | – | – |
| CCSC(=N)N [EPTU, 2-ethyl-2-thiopseudourea] | – | prevented MPP^+-induced neuronal death in CGNs | – | IC50 [2]: 17 nM; IC50 [3]: 36 nM |
| CN(C)c1ccc(/C=C2/C(=O)Nc3ccccc32)cc1 [trans-SU4312] | – | – | 5200 nM | – |
| CC(=N)NCc1cccc(CN)c1 [1400W] | – | failed to block neuronal death; also recorded: did not show protection | – | – |
| CN(C)c1ccc(/C=C2\C(=O)Nc3ccccc32)cc1 [cis-SU4312] | – | – | 800 nM | – |
| O=C1Nc2ccc(Br)cc2/C1=C/c1cc2c([nH]1)CCCC2 [VRI] | but not VRI ameliorated the MPTP-induced deficit of swimming behavior | at 1 and 3 μM failed to block neuronal loss in vitro | 70000 nM | MPTP-induced loss of DA neurons / decrease of TH+ region area [6]: could not prevent MPTP-induced decrease in TH^+ region area; inhibition of intersegmental-vessel (ISV) formation [7]: inhibited the formation of intersegmental-vessels; swimming behavior of normal zebrafish larvae, drug alone ([1]; zebrafish, in vivo): Neither SU5416 nor VRI treatment alone notably altered the swimming behavior; toxicity to zebrafish [8]: showed toxicity to zebrafish |
| CNC(=N)NCCC[C@H](N)C(=O)O [L-NMMA] | – | – | – | low potassium-induced cell death (MTT) [9]: at 10-20 μM prevented low potassium-induced neuronal death in CGNs |
